Tests used:
Test in all cases: relative viability (nuclei count vs DMSO), 5 days (fraction); higher = more cells survive
Linsitinib + Bortezomib = compound: C[C@]1(O)C[C@@H](c2nc(-c3ccc4ccc(-c5ccccc5)nc4c3)c3c(N)nccn32)C1 [Linsitinib] + CC(C)C[C@H](NC(=O)[C@H](Cc1ccccc1)NC(=O)c1cnccn1)B(O)O [Bortezomib] (partner 0.002 µM)
Method in brief: (§1)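 Relative viability was taken as the ratio of nuclei in treated wells to nuclei in vehicle wells. Lung cancer cell lines in 1536-well plates received compounds by pin tool one day after seeding, either one drug alone or a fixed anchor-drug dose plus five library-drug doses (not always all listed) in √10 steps. Nuclei were counted on 4× images after 5 days of treatment, and values are medians of duplicate plates.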

Linsitinib + Navitoclax = compound: C[C@]1(O)C[C@@H](c2nc(-c3ccc4ccc(-c5ccccc5)nc4c3)c3c(N)nccn32)C1 [Linsitinib] + CC1(C)CCC(c2ccc(Cl)cc2)=C(CN2CCN(c3ccc(C(=O)NS(=O)(=O)c4ccc(N[C@H](CCN5CCOCC5)CSc5ccccc5)c(S(=O)(=O)C(F)(F)F)c4)cc3)CC2)C1 [Navitoclax] (partner 0.5 µM)
Method in brief: as §1

Linsitinib + Decitabine = compound: C[C@]1(O)C[C@@H](c2nc(-c3ccc4ccc(-c5ccccc5)nc4c3)c3c(N)nccn32)C1 [Linsitinib] + Nc1ncn([C@H]2C[C@H](O)[C@@H](CO)O2)c(=O)n1 [Decitabine] (partner 2 µM)
Method in brief: as §1

Ispinesib + Tozasertib = compound: Cc1ccc(C(=O)N(CCCN)[C@@H](c2nc3cc(Cl)ccc3c(=O)n2Cc2ccccc2)C(C)C)cc1 [Ispinesib] + Cc1cc(Nc2cc(N3CCN(C)CC3)nc(Sc3ccc(NC(=O)C4CC4)cc3)n2)n[nH]1 [Tozasertib] (partner 0.1 µM)
Method in brief: as §1

Cell Line | relative viability (Linsitinib + Bortezomib; first compound 0.01 µM) | relative viability (Linsitinib + Bortezomib; first compound 0.03162 µM) | relative viability (Linsitinib + Bortezomib; first compound 0.1 µM) | relative viability (Linsitinib + Bortezomib; first compound 0.3162 µM) | relative viability (Linsitinib + Bortezomib; first compound 1 µM) | relative viability (Linsitinib + Navitoclax; first compound 0.01 µM) | relative viability (Linsitinib + Navitoclax; first compound 0.03162 µM) | relative viability (Linsitinib + Navitoclax; first compound 0.1 µM) | relative viability (Linsitinib + Navitoclax; first compound 0.3162 µM) | relative viability (Linsitinib + Navitoclax; first compound 1 µM) | relative viability (Linsitinib + Decitabine; first compound 0.01 µM) | relative viability (Linsitinib + Decitabine; first compound 0.03162 µM) | relative viability (Linsitinib + Decitabine; first compound 0.1 µM) | relative viability (Linsitinib + Decitabine; first compound 1 µM) | relative viability (Ispinesib + Tozasertib; first compound 0.001 µM) | relative viability (Ispinesib + Tozasertib; first compound 0.003162 µM) | relative viability (Ispinesib + Tozasertib; first compound 0.01 µM) | relative viability (Ispinesib + Tozasertib; first compound 0.03162 µM) | relative viability (Ispinesib + Tozasertib; first compound 0.1 µM) | relative viability (Linsitinib + Decitabine; first compound 0.3162 µM)
NCI-H3122 | 0.994 | 1.05 | 1.04 | 0.86 | 1.03 | 1.02 | 1.05 | 1.04 | 1.02 | 1.08 | 0.442 | 0.388 | 0.424 | 0.462 | 0.408 | 0.402 | 0.462 | 0.212 | 0.17 | –
PC-3 [JPC-3] | 0.745 | 0.824 | 0.821 | 0.637 | 0.713 | 0.842 | 0.798 | 0.785 | 0.731 | 0.669 | 0.822 | 0.902 | 0.91 | 0.814 | 0.899 | 0.902 | 0.961 | 1.01 | 0.59 | 0.77
PC-14 | 0.792 | 0.762 | 1.02 | 0.923 | 0.767 | 0.968 | 1.01 | 1.03 | 0.984 | 0.944 | 0.2 | 0.196 | 0.22 | 0.172 | 0.662 | 0.669 | 0.624 | 0.433 | 0.0644 | 0.158
RERF-LC-KJ | 0.95 | 1.03 | 1.16 | 0.892 | 0.927 | 0.862 | 0.813 | 0.581 | 0.791 | 0.558 | 0.726 | 0.651 | 0.622 | 0.665 | 0.593 | 0.412 | 0.329 | 0.262 | 0.354 | 0.599
SK-LU-1 | 1.19 | 0.659 | 1.25 | 0.492 | 0.561 | 0.903 | 0.777 | 0.793 | – | 0.774 | 0.605 | 0.635 | 0.637 | 0.602 | 0.393 | 0.335 | 0.31 | 0.288 | 0.289 | 0.624
SW 1573 | 1.18 | 1.19 | 1.1 | 0.797 | 0.811 | 0.921 | 0.925 | 1 | 0.81 | 0.701 | 0.648 | 0.589 | 0.447 | 0.348 | 0.18 | 0.19 | 0.174 | 0.194 | 0.131 | 0.472

Reference: the supplement of paper PMC10307832
